Tests used:
Assay in all cases: CRE-luciferase
Type in all cases: cell-based
[1] = target: T1, Olfr376 (Mus musculus, UniProt Q8VGI2); conditions: Hana3A cells, 4 h, 37°C; agonist
T1 sequence (Q8VGI2 1-317): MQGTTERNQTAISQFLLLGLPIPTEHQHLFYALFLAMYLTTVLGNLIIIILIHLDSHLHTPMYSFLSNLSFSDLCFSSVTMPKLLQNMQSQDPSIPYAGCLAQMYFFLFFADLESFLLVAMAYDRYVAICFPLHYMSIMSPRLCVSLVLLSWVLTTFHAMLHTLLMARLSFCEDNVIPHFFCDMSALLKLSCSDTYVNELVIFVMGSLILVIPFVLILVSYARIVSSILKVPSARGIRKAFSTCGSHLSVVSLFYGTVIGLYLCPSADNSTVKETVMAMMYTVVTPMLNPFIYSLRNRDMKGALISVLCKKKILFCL

[2] = target: T2, Olfr57 (Mus musculus, UniProt Q8VGU7); conditions: Hana3A cells, 4 h, 37°C; agonist
T2 sequence (Q8VGU7 1-319): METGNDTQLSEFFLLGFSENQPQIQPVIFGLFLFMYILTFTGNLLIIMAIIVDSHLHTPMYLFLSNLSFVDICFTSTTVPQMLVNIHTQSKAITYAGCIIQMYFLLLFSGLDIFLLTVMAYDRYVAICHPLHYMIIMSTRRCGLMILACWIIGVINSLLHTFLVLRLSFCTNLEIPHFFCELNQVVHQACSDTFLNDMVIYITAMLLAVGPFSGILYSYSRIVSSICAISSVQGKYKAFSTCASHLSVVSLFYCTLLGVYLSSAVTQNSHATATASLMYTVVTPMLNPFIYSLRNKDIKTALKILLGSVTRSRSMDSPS

[3] = target: T3, Olfr491 (Mus musculus, UniProt Q8VG06); conditions: Hana3A cells, 4 h, 37°C; agonist
T3 sequence (Q8VG06 1-310): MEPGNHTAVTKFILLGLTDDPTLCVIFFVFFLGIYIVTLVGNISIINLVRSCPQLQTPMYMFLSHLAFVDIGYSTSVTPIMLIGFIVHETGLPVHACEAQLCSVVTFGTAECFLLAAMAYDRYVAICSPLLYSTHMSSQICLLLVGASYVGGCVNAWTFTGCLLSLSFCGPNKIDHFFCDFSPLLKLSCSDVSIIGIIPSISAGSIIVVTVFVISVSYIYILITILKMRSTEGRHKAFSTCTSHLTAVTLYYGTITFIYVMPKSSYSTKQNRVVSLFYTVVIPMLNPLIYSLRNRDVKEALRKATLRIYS

[4] = target: T4, Olfr20 (Mus musculus, UniProt Q7TRX9); conditions: Hana3A cells, 4 h, 37°C; agonist
T4 sequence (Q7TRX9 1-314): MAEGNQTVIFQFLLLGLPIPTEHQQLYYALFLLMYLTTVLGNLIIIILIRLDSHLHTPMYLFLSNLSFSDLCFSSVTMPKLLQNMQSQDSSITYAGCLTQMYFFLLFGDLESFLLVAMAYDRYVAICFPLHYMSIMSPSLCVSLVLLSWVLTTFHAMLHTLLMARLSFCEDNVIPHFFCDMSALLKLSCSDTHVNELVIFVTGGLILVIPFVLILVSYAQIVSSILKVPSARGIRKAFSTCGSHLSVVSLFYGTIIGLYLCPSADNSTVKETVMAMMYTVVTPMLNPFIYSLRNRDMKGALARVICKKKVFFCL

[5] = target: T5, Olfr19 (Mus musculus, UniProt Q9JHB2); conditions: Hana3A cells, 10^–9 – 10^–3 M, 4 h, 37°C; agonist
T5 sequence (Q9JHB2 1-309): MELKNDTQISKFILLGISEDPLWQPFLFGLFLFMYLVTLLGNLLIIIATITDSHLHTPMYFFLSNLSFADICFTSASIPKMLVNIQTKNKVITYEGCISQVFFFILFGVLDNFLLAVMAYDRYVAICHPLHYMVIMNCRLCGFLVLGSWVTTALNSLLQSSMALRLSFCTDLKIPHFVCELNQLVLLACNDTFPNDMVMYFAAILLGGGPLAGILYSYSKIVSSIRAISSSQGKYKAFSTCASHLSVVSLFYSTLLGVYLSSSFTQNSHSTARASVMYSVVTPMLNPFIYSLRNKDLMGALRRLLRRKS

## CC1=NC(C)SC1C (centres unmarked) [2,5–dihydro–2,4,5–trimethylthiazoline]
[1]
  CRE-luciferase (Dual-Glo) reporter: Five of these TMT ORs (Olfr20, Olfr30, Olfr57, Olfr376, Olfr491)
[2]
  CRE-luciferase (Dual-Glo) reporter: Five of these TMT ORs (Olfr20, Olfr30, Olfr57, Olfr376, Olfr491)
[3]
  CRE-luciferase (Dual-Glo) reporter: Five of these TMT ORs (Olfr20, Olfr30, Olfr57, Olfr376, Olfr491)
[4]
  CRE-luciferase (Dual-Glo) reporter: Five of these TMT ORs (Olfr20, Olfr30, Olfr57, Olfr376, Olfr491)

## CC(=O)c1ccccc1 [acetophenone]
[5]
  EC50: a newly identified acetophenone OR, Olfr19
